Read-outs that look alike come from different tables or passages of the source.
Assays:
[1] = system: human colorectal cancer COL-1; assay: Anti-tumor effect (IR) in human colorectal cancer COL-1 xenograft model; assay type: in vivo, male nude mice (BALB/cA-nu); details: in the combination S-1 7 mg/kg, l-OHP 4.2 mg/kg
Description: A fragment (about 2 mm diameter) of human colorectal cancer COL-1 was transplanted into the right axilla of each of male nude mice (BALB/cA-nu, 4-week old, purchased from CLEA Japan, Inc.), and the tumor volume ((longer diameter)×(shorter diameter)^2/2) of the mouse was calculated. The mice were allocatedinto groups so that the average tumor volumes of the groups were adjusted to about 220 mm^3 (8 mice/group). Drug administration was started on the next day after the day of grouping (Day 0). […] TSU-68 was orally administered once a day at a dose of 200 or 400 mg/kg/day from Day 1 to Day 28. A group to which no drug was administered was set as a control group. During drug administration, the tumor volume of each mouse was measured every 3 to 4 days, and the relative tumor volume (RTV) and the anti-tumor effect (IR (%)) of each group were calculated by the formulas below. The statistical significance of difference of the anti-tumor effect between drug-administration group and control group was analyzed by the Student's t-test (both sides) using the average RTV value of these groups. A P value of p<0.05 was considered statistically significant. Furthermore, the advantage in anti-tumor effect (augmentation effect) of the S-1/l-OHP/TSU-68 combination group, with respect to each of the control group, the S-1/l-OHP combination group and the TSU-68 single administration group, was statistically analyzed through the IUT test. […] Relative tumor volume (RTV)=(Tumor volume on Day N)/(Tumor volume on Day 1) [F1] Anti-tumor effect (IR(%))=[1−(RTV of drug-administration group)/(RTV of control group)]×100

[2] = system: metastatic colorectal cancer patients; assay type: in vivo, human
Description: The safety of the case where metastatic colorectal cancer patients (9 cases) were subjected to l-OHP and S-1 combination therapy with administration of TSU-68 was examined. In this study, one cycle of the treatment was consisted of 21 days. To each patient, l-OHP was intravenously administered at a dose of 130 mg/m^2 (per body surface area) on Day 1, and S-1 was orally administered, twice a day after meal, at a daily dose (in terms of tegafur) of 70 mg/m^2 (per body surface area) from Day 1 to Day 14. The 7 days from Day 15 to Day 21 were placed as a rest period. TSU-68 was orally administered every day, twice a day after meal, at a daily dose of 400 mg to 800 mg.
The above study was carried out in order to determine the recommended dose (RD) of TSU-68 in the case where l-OHP and S-1 combination therapy, whose efficacy to colorectal cancer had been established, may be carried out in combination with administration of TSU-68, without causing adverse side effects.
The safety was evaluated according to NCI-CTCAE (3rd edition, the National Cancer Institute's Common Terminology Criteria for Adverse Events version 3.0).

recommended dose (RD) of TSU-68 in the combination therapy ([2]; human, in vivo, 21 days): 400 mg
SMILES: Cc1[nH]c(/C=C2\C(=O)Nc3ccccc32)c(C)c1CCC(=O)O [TSU-68, 3-[2,4-dimethyl-5-[[(Z)-2,3-dihydro-2-oxo-1H-indol-3-ylidene]methyl]-1H-pyrrol-3-yl]propanoic acid]
IR (%) Day 15 ([1]; TSU-68 200 mg/kg/day p.o.): 47.5% | IR (%) Day 15 ([1]; TSU-68 400 mg/kg/day p.o.): 51.4% | IR (%) Day 22 ([1]; TSU-68 200 mg/kg/day p.o.): 47.8% | IR (%) Day 22 ([1]; TSU-68 400 mg/kg/day p.o.): 46.3% | IR (%) Day 29 ([1]; TSU-68 200 mg/kg/day p.o.): 49.2% | IR (%) Day 29 ([1]; TSU-68 400 mg/kg/day p.o.): 52.8% | anti-tumor effect, 400 mg group versus 800 mg group ([2]; TSU-68 400 or 800 mg daily with l-OHP and S-1): almost equivalent | dose-limiting toxicity (DLT) ([2]; human, in vivo, 21 days): dose-limiting toxicity (DLT) including singultus and skin response in the hands and feet (Grade 3) or neutropenia (Grade 2) was observed | dose-limiting toxicity (DLT) ([2]; in vivo): no DLT was observed

Reference: patent publication US20120059009A1, “ANTI-TUMOR AGENT CONTAINING TEGAFUR-GIMERACIL-OTERACIL POTASSIUM COMBINATION DRUG AND OXALIPLATIN” (TAIHO PHARMACEUTICAL CO., LTD., priority 2009, published 2012)
